Structures can show the parent of a compound that is named as a salt.
How the values were obtained:
[1] = system: NMDA receptor (N-Methyl-Aspartate excitation of central mammalian neurones); conditions: Anis et al, Br. J. Pharmacol. 1983; cited from earlier work
NMA neurotoxicity = conditions: Olney et al, Neuroscience Letters 1986 for PCP and ketamine; competitive NMA antagonist statement without reference; cited from earlier work
[2] = system: N-Methylaspartate excitation of spinal neurones; conditions: Berry et al, Eur. J. Pharm. 1983; binding and behavioral data; cited from earlier work
[3] = system: [^3 H]PCP binding sites, rat cerebral cortical membranes; conditions: Goldman et al, FEBS Lett. 1985; cited from earlier work
chick embryo retina [4] = assay: Acute excitotoxic lesion of chick embryo retina by agonist alone; conditions: 1 mM Glu, 30 min in BSS
Method: (§1) Two agonists were employed in the present test, each at a concentration established previously to be the lowest concentration required to consistently cause a fully-developed retinal lesion: KA (25 μM) and NMA (200 μM). […] Internal controls in each experiment consisted of at least six specimens being incubated with agonist alone. […] The method of tissue preparation was as follows: 15-day old chick embryos were decapitated and their eyes removed and cut into quadrants after excising the cornea and removing the lens, vitreous and iris. The retinal quadrants were then gently separated from the pigment epithelium and incubated for 30 min. at 37° C. in BSS to which an agonist or agonist plus antagonist was added. The BSS contained 140 mM Na^+, 5.0 mM K^+, 0.5 mM Ca^++, 4 5mM Mg^++, 150 mM Cl^-, 5.6 mM glucose and bicarbonate/phosphate buffer (pH 7.3). After incubation for 30 min., the retinal quadrants were fixed by immersion in phosphatebuffered solution containing 1.5% glutaraldehyde and 1% paraformaldehyde, then additionally fixed in 1% osmium tetroxide, dehydrated in graded ethanols, cleared in toluene and embedded in araldite. Sections were cut 1 μM thick on a Sorval ultratome and stained with Methylene blue/Azure 11 for histopathological evaluation by light microscopy.

chick embryo retina [5] = conditions: chicken, 30 min
Method: as §1

[6] = system: N-methyl-D-aspartate receptor; conditions: Wong et al, PNAS 1986; cited from earlier work
[7] = system: NMA neurotoxicity in chick embryo retina; assay: NMDA/KA Antagonist Assay, chick embryo retina, NMA (200 μM) neurotoxicity; format: cell-based; conditions: 15-day old chick embryo retina, 30 min at 37° C., n>6
Method: as §1

[8] = system: KA neurotoxicity in chick embryo retina; assay: NMDA/KA Antagonist Assay, chick embryo retina, KA (25 μM) neurotoxicity; format: cell-based; conditions: 15-day old chick embryo retina, 30 min at 37° C.
Method: as §1

## c1ccc(C2(N3CCCCC3)CCCCC2)cc1 [PCP]
[1]
  reduction of excitatory effects of NMDA as compared to KA and QUIS: reduce selectively the excitatory effects of NMDA as compared to KA and QUIS
NMA neurotoxicity
  blocking of NMA neurotoxicity: Blocking of NMA neurotoxicity

## CC1CCCN(C2(c3ccccc3)CCCCC2)C1 (single isomer, unassigned; (+)) [(+)-PCMP, (+)-1-(1-phenylcyclohexyl)-3-methylpiperidine]
[2]
  stereoselective effect over isomer counterpart in reducing the excitatory action of NMDA: stereoselective effects
[3]
  inhibition of the specific binding of [^3 H]PCP: potent inhibitor

## N[C@@H](CCC(=O)O)C(=O)O [Glu, Glutamate]
Chick embryo retina [4]
  retinal lesion: full lesion

## CN[C@H](CC(=O)O)C(=O)O [NMA, N-methyl-D-aspartate]
Chick embryo retina [5]
  lowest concentration required to consistently cause a fully-developed retinal lesion: 200 µM

## C[C@]12N[C@H](Cc3ccccc31)c1ccccc12 [MK-801, (+)-5-methyl-10,11-dihydro-5H-dibenzo[a,d]cyclohepten-5,10-imine maleate)]
[6]
  antagonism of the N-methyl-D-aspartate receptor site: potent, selective non-competitive antagonist

## CNC1(c2ccccc2Cl)CCCCC1=O (stereo not drawn) [ketamine]
[1]
  reduction of excitatory effects of NMDA as compared to KA and QUIS: reduce selectively the excitatory effects of NMDA as compared to KA and QUIS
NMA neurotoxicity
  blocking of NMA neurotoxicity: Blocking of NMA neurotoxicity

## 10-[2-(diethylamino)ethyl]phenothiazine [ethopropazine]
[7]
  concentration providing total protection against toxicity of NMA: 25.0 µM
[8]
  blocking of KA toxicity: not observed

## CC1CCC(c2ccccc2)(N2CCCCC2)CC1 (stereo not drawn) [cis-N-(1-phenyl-4-methylcyclohexyl)piperidine]
[2]
  stereoselective effect over isomer counterpart in reducing the excitatory action of NMDA: stereoselective effects
